Measured values as given in US9932354B2, “Imidazo-oxadiazole and imidazo-thiadiazole derivatives” (Ares Trading S.A., priority 2012, dated 2018).
pIC50: −log10 of the molar value.

Key:
[1] = tested on: Amyloid-β peptide release (Aβ42), HEK cells overexpressing APP (HEK-APP); experiment: Amyloid-β peptide release (Aβ42) assay, AlphaLISA on supernatant of HEK-APP cells; assay type: cell-based; settings: Homo sapiens, HEK293, 24 h incubation with compound, read-out: Ab42 IC50 Ranges
How it was run: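 HEK-APP cells treated with compounds for 24 h at 37 °C, 5% CO2. Supernatant Aβ42 or total Aβ measured by AlphaLISA after 4.5 h with antibody beads (6E10 acceptor beads for total). IC50 values derived.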

[2] = tested on: Amyloid-β peptide release (AβTotal), HEK cells overexpressing APP (HEK-APP); experiment: Amyloid-β peptide release (AβTotal) assay, AlphaLISA on supernatant of HEK-APP cells; assay type: cell-based; settings: ratio Abtot vs Ab42, HEK-APP cells, 24 h

Structure (SMILES) | pIC50 [1] | Abtot/Ab42 selectivity ranges [2]
Cc1ncc2oc(-c3ccc(NC(=O)Cc4ccc(F)cc4Cl)cc3)nn12 [Example 65, 2-(2-chloro-4-fluorophenyl)-N-(4-(5-methylimidazo[5,1-b][1,3,4]oxadiazol-2-yl)phenyl)acetamide] | 5.66 to 6.00 | c (c: 50 fold > selectivity ≥ 10 fold)
Cc1ncc2oc(-c3ccc(NC(=O)Cc4c(F)cc(Cl)cc4F)cc3)nn12 [Example 7, 2-(4-Chloro-2,6-difluoro-phenyl)-N-[4-(5-methyl-imidazo[5,1-b][1,2,4]oxadiazol-2-yl)-phenyl]-acetamide] | 6.00 to 6.30 | b (b: 100 fold > selectivity ≥ 50 fold)
Cc1cc(C)cc(CC(=O)Nc2ccc(-c3nn4c(C)ncc4o3)cc2)c1 [Example 51, 2-(3,5-Dimethyl-phenyl)-N-[4-(5-methyl-imidazo[5,1-b][1,2,4]oxadiazol-2-yl)-phenyl]-acetamide] | 6.00 to 6.30 | c (c: 50 fold > selectivity ≥ 10 fold)
Cc1ccccc1C1CCCN1C(=O)c1nn2c(C)ncc2s1 (stereo not shown) [Example 121, (5-Methyl-imidazo[5,1-b][1,3,4]thiadiazol-2-yl)-(2-o-tolyl-pyrrolidin-1-yl)-methanone] | 6.00 to 6.30 | d (d: 10 fold > selectivity)
Cc1ccc(C)c(CC(=O)Nc2ccc(-c3nn4c(C)ncc4o3)nc2)c1 [Example 10, 2-(2,5-Dimethyl-phenyl)-N-[6-(5-methyl-imidazo [5,1-b][1,2,4]oxadiazol-2-yl)-pyridin-3-yl]-acetamide] | 5.66 to 6.00 | c (c: 50 fold > selectivity ≥ 10 fold)
Cc1ncc2oc(-c3ccc(NC(=O)Cc4cccc5ccccc45)cn3)nn12 [Example 13, N-[6-(5-Methyl-imidazo[5,1-b][1,2,4]oxadiazol-2-yl)-pyridin-3-yl]-2-naphthalen-1-yl-acelamide] | 5.66 to 6.00 | c (c: 50 fold > selectivity ≥ 10 fold)
CCOc1ccc(CC(=O)Nc2ccc(-c3nn4c(C)ncc4o3)cc2)cc1 [Example 8, 2-(4-Ethoxy-phenyl)-N-[4-(5-methyl-imidazo[5,1-b][1,2,4]oxadiazol-2-yl)-phenyl]-acetamide] | 5.66 to 6.00 | c (c: 50 fold > selectivity ≥ 10 fold)
Cc1ncc2sc(C(=O)N3CCCCC3c3ccccc3)nn12 (stereo not shown) [Example 108, (5-Methyl-imidazo[5,1-b][1,3,4]thiadiazol-2-yl)-(2-phenyl-piperidin-1-yl)-methanone] | 6.00 to 6.30 | d (d: 10 fold > selectivity)
